Laboratory results published in PMC5722316, “Synthesis of novel purpurealidin analogs and evaluation of their effect on the cancer-relevant potassium channel KV10.1” (PLoS ONE, 2017).

Assays:
hKV10.1a = target: T1, hKV10.1a (Homo sapiens, UniProt O95259); experiment: Two-electrode voltage-clamp recordings of KV10.1 currents in Xenopus laevis oocytes; type: cell-based; conditions: for KV10.1 inhibitory activity in words (structure-activity discussion): based on inhibition at 40 μM (Fig 5)
T1 construct: expressed in transfected cells; host or cells: Xenopus laevis oocytes injected with cRNA transcribed from the hKV10.1a-pSGEM plasmid
T1 sequence (O95259 1-962 isoform O95259-2): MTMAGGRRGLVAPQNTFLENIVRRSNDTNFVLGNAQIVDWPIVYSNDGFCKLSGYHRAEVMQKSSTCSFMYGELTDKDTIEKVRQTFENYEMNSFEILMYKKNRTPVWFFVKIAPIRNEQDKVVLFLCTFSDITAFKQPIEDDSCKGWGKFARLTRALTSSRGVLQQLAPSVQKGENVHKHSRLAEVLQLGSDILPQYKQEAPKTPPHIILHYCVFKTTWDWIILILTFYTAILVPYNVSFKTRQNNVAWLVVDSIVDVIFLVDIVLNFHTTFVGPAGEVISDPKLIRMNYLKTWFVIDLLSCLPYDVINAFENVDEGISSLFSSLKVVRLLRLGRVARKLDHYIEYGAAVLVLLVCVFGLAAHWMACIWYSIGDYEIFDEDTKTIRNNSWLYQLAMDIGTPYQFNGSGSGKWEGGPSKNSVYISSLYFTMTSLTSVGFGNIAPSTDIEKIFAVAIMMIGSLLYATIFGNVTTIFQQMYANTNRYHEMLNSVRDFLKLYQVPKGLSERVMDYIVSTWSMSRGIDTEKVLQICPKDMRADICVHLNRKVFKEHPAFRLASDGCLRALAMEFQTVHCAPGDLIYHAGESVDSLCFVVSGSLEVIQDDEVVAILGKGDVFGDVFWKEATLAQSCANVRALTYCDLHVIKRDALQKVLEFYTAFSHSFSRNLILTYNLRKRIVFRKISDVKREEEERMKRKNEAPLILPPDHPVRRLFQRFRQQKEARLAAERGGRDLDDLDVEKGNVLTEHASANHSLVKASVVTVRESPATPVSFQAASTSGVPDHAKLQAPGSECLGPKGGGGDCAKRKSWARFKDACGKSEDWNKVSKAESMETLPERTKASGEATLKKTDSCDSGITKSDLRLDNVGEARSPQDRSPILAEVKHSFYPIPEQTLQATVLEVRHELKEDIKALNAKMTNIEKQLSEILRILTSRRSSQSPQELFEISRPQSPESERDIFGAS
Text: For the expression of hKV10.1a (GeneBank accession number: NM_002238.3) in Xenopus oocytes, the hKV10.1a-pSGEM plasmid was linearized with SfiI (ThermoFisher Scientific, Waltham, Massachusetts, USA) and transcribed using the T7 mMESSAGE-mMACHINE transcription kit (Ambion®, Carlsbad, California, USA).
Stage V-VI Xenopus laevis (African clawed frog) oocytes were isolated by partial ovariectomy. Mature female animals were purchased from Nasco (Fort Atkinson, Wisconsin, USA) and were housed in the Aquatic Facility (KU Leuven) in compliance with the regulations of the European Union (EU) concerning the welfare of laboratory animals as declared in Directive 2010/63/EU. The use of Xenopus laevis was approved by the Animal Ethics Committee of the KU Leuven (Project nr. P038/2017). Prior to harvesting the oocytes, the animals were anesthetized by a 15-min submersion in 0.1% tricaine methanesulfonate (pH 7.0). Isolated oocytes were defolliculated with 1.5 mg/mL collagenase.
Defolliculated oocytes were injected with 4 nL of cRNA at a concentration of 1 ng/nL using a micro-injector (Drummond Scientific®, Broomall, Pennsylvania, USA). The oocytes were incubated in a solution containing (in mM): NaCl, 96; KCl, 2; CaCl2, 1.8; MgCl2, 2 and HEPES, 5 (pH 7.4), supplemented with 50 mg/L gentamycin sulfate.
Two-electrode voltage-clamp recordings were performed at room temperature (18–22°C) using a Geneclamp 500 amplifier (Molecular Devices, USA) controlled by a pClamp data acquisition system (Axon Instruments®, Union City, California, USA). Whole cell currents from oocytes were recorded 1–4 days after injection. Bath solution composition was (in mM): NaCl, 96; KCl, 2; CaCl2, 1.8; MgCl2, 2 and HEPES, 5 (pH 7.5). Voltage and current electrodes were filled with a 3 M solution of KCl in H2O. Resistances of both electrodes were kept between 0.5 and 1.5 MΩ. The elicited KV10.1 currents were filtered at 1 kHz and sampled at 2 kHz using a four-pole low-pass Bessel filter. Leak subtraction was performed using a -P/4 protocol. KV10.1 currents were evoked by 2-s depolarizing pulses to 0 mV from a holding potential of -90 mV unless otherwise indicated.
All electrophysiological data are presented as means ± S.E.M of n ≥ 3 independent experiments unless otherwise indicated. All data was analyzed using pClamp Clampfit 10.4 (Molecular Devices®, Downingtown, Pennsylvania, USA) and OriginPro 8 (Originlab®, Northampton, Massachusetts, USA) or GraphPad Prism 5 software (GraphPad Software, Inc., San Diego, California, USA).

[1] = 40 μM, extracellular perfusion, average ± SEM, read-out: KV10.1 current inhibition

Compound | inhibition at 40 µM (hKV10.1a; [1]) | melting point | further results
CN(C)CCCOc1c(Br)cc(CCNC(=O)c2ccccc2Br)cc1Br [Compound 12] | 27 ± 4% |  | 
CN(C)CCCOc1c(Br)cc(CCNC(=O)c2ccc(Br)cc2)cc1Br [Compound 14] | 22 ± 3% |  | 
CN(C)CCCOc1c(Br)cc(CCNC(=O)c2cncc(Br)c2)cc1Br [Compound 15] | 50 ± 3% |  | 
CN(C)CCCc1c(Br)cc(CCNC(=O)c2cc(Cl)cc(Cl)c2)cc1Br [Compound 16] |  | 83 to 84.5 °C | 
CN(C)CCCOc1c(Br)cc(CCNC(=O)c2cc(F)cc(F)c2)cc1Br [Compound 18] | 35 ± 2% |  | 
CN(C)CCCOc1c(Br)cc(CCNC(=O)c2ccccc2F)cc1Br [Compound 19] | 32 ± 4% | 70 to 72 °C | 
COc1ccc(C(=O)NCCc2cc(Br)c(CCCN(C)C)c(Br)c2)cc1 [Compound 21] |  | 106 to 109 °C | 
COc1c(Cl)cc(C(=O)NCCc2cc(Br)c(CCCN(C)C)c(Br)c2)cc1Cl [Compound 23] |  | 91 to 95 °C | 
CCOc1c(Cl)cc(C(=O)NCCc2cc(Br)c(CCCN(C)C)c(Br)c2)cc1Cl [Compound 24] |  | 73 to 75 °C | 
COc1ccc(C(=O)NCCc2cc(Br)c(OCCCN(C)C)c(Br)c2)cc1Br [Compound 25] | 80 ± 4% |  | 
COc1c(Br)cc(C(=O)NCCc2cc(Br)c(CCCN(C)C)c(Br)c2)cc1Br [Compound 26] |  | 83 to 85 °C | 
COc1ccc(C(=O)NCCc2cc(Br)c(OCCCN(C)C)c(Br)c2)cc1F [Compound 27] | 65 ± 1% | 83 to 89 °C | 
COc1c(F)cc(C(=O)NCCc2cc(Br)c(CCCN(C)C)c(Br)c2)cc1F [Compound 28] |  | 93 to 96 °C | 
COc1ccc(C(=O)NCCc2cc(Br)c(OCCCN(C)C)c(Br)c2)cc1I [Compound 29] | 79 ± 2% |  | 
COc1ccc(C(=O)NCCc2cc(Br)c(OCCCN(C)C)c(Br)c2)cc1C [Compound 30] | 80 ± 2% |  | 
COc1ccc(C(=O)NCCc2cc(Br)c(OCCCN(C)C)c(Br)c2)cc1OC [Compound 31] | 44 ± 4% |  | 
CC(C)CCCOc1c(Br)cc(CCNC(=O)c2cc(Br)cc(Br)c2)cc1Br [Compound 32] | 0% | 123 to 124 °C | KV10.1 inhibitory activity in words (structure-activity discussion) (hKV10.1a): total loss of the activity
CC(C)CCCOc1c(Br)cc(CCNC(=O)c2cc(Cl)cc(Cl)c2)cc1Br [Compound 33] | 0% | 107.5 to 109 °C | KV10.1 inhibitory activity in words (structure-activity discussion) (hKV10.1a): total loss of the activity
O=C(NCCc1ccc(O)cc1)c1cc(Cl)cc(Cl)c1 [Compound 34] |  |  | KV10.1 current inhibition (hKV10.1a; 40 μM, extracellular perfusion, average ± SEM): 0 ± 0%
CN(C)CCCOc1ccc(CCNC(=O)c2cc(Cl)cc(Cl)c2)cc1 [Compound 35] | 4 ± 4% |  | KV10.1 inhibitory activity in words (structure-activity discussion) (hKV10.1a): abolished the activity
CNCCCOc1c(Br)cc(CCNC(=O)c2ccc(OC)cc2)cc1Br [Compound 43] | 9 ± 5% | 89 to 97 °C | 
CNCCCOc1c(Br)cc(CCNC(=O)c2ccc(OC)c(Cl)c2)cc1Br [Compound 44] | 58 ± 1% |  | 
CNCCCOc1c(Br)cc(CCNC(=O)c2cc(Cl)c(OC)c(Cl)c2)cc1Br [Compound 45] | 39 ± 7% | 86 to 97 °C | 
CNCCCOc1c(Br)cc(CCNC(=O)c2cc(F)c(OC)c(F)c2)cc1Br [Compound 46] | 14 ± 5% | 87 to 92 °C | 
COCC(=O)O[C@]1(CCN(C)CCCc2nc3ccccc3[nH]2)CCc2cc(F)ccc2[C@@H]1C(C)C [mibefradil, reference compound] |  |  | inhibition at 10 µM (hKV10.1a; 10 μM, 2-s depolarizing pulses to 0 mV from -90 mV, read-out: KV10.1 current inhibition): 50 ± 5%
